PMC2834170 (Bioorganic & medicinal chemistry letters, 2010)

Key:
[1] = test system: μ, δ and κ opioid receptors; assay: Selectivity across μ, δ and κ opioid binding to CHO membranes; conditions: for Selectivity μ/δ/κ: ratio of Ki values, CHO membranes
μ opioid receptor = μ opioid receptor (Homo sapiens, UniProt P35372); assay: Inhibition of μ opioid binding to CHO membranes
κ opioid receptor = κ opioid receptor (Homo sapiens, UniProt P41145); assay: Inhibition of κ opioid binding to CHO membranes
Chain of κ opioid receptor (P41145 whole entry): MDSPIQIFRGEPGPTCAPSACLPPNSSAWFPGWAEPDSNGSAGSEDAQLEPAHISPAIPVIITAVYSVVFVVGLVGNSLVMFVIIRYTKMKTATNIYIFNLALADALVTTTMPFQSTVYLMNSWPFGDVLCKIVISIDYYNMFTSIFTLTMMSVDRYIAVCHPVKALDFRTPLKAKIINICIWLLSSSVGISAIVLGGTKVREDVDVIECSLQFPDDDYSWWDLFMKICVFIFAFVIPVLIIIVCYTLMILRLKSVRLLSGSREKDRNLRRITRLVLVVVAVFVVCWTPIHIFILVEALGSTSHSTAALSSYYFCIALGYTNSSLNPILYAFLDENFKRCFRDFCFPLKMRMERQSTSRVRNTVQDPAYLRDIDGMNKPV

[2] = relative to ether based compound 3

Chain of μ opioid receptor (P35372 whole entry, species assumed): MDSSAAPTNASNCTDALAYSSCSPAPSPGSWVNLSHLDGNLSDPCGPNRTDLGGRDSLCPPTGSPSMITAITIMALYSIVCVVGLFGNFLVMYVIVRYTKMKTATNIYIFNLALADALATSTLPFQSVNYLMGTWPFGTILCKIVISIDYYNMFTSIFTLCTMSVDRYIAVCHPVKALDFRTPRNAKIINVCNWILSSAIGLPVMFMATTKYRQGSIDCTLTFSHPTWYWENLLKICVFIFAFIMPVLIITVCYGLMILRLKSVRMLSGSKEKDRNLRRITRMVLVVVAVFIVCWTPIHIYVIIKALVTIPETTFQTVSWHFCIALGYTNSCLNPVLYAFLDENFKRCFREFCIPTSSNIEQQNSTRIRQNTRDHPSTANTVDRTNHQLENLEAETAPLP

Compound: OC(COc1ccc2c(c1)[C@@]13CCCC[C@H]1[C@@H](C2)N(CC1CCC1)CC3)CC(O)COc1ccc2c(c1)[C@@]13CCCC[C@H]1[C@@H](C2)N(CC1CCC1)CC3 (some centres unmarked) [Compound 7]
- Selectivity μ/δ/κ [1]: 7/194/1

Compound: CCCCCCCCCCOc1ccc2c(c1)[C@@]13CCCC[C@H]1[C@@H](C2)N(CC1CCC1)CC3 [Compound 17]
- weaker binding affinity at the μ opioid receptor (μ opioid receptor; relative to 15): 10 fold

Compound: OC(CCCCCCC(O)COc1ccc2c(c1)[C@@]13CCCC[C@H]1[C@@H](C2)N(CC1CCC1)CC3)COc1ccc2c(c1)[C@@]13CCCC[C@H]1[C@@H](C2)N(CC1CCC1)CC3 (stereo partly drawn) [Compound 12, Bis-((−)-N-cyclobutylmethylmorphinan-3-oxy) decane-2,9-diol]
- increase in binding affinity at the κ opioid receptor (κ opioid receptor; [2]): 86 fold
- increase in binding affinity at the μ opioid receptor (μ opioid receptor; [2]): 27 fold

Compound: OC(COc1ccccc1)COc1ccc2c(c1)[C@@]13CCCC[C@H]1[C@@H](C2)N(CC1CCC1)CC3 (some centres unmarked) [Compound 18]
- weaker binding affinity at the μ opioid receptor (μ opioid receptor; relative to bivalent hydroxy ether 6): 7.5 fold
- Selectivity μ/δ/κ [1]: 1/13/3

Compound: OC(CCCCC(O)COc1ccc2c(c1)[C@@]13CCCC[C@H]1[C@@H](C2)N(CC1CCC1)CC3)COc1ccc2c(c1)[C@@]13CCCC[C@H]1[C@@H](C2)N(CC1CCC1)CC3 (some centres unmarked) [Compound 10]
- Selectivity μ/δ/κ [1]: 1/23/1

Compound: CCCCCCCCCC(=O)Oc1ccc2c(c1)[C@@]13CCCC[C@H]1[C@@H](C2)N(CC1CCC1)CC3 [Compound 16]
- Ki (nM) ± SE κ (κ opioid receptor; CHO membranes): sub-nanomolar
- Ki (nM) ± SE μ (μ opioid receptor; CHO membranes): sub-nanomolar
- Selectivity μ/δ/κ [1]: 1/100/1

Compound: CCCCCCCCC(O)COc1ccc2c(c1)[C@@]13CCCC[C@H]1[C@@H](C2)N(CC1CCC1)CC3 (some centres unmarked) [Compound 15]
- weaker binding affinity at the μ and κ receptors ([1]; relative to bivalent ligand 12): 3–6 fold

Compound: c1cc2c(cc1OCC1CO1)[C@@]13CCCC[C@H]1[C@@H](C2)N(CC1CCC1)CC3 (some centres unmarked) [Compound 14]
- Selectivity μ/δ/κ [1]: 1/27/5

Compound: OC(COc1ccc2c(c1)[C@@]13CCCC[C@H]1[C@@H](C2)N(CC1CCC1)CC3)COc1ccc2c(c1)[C@@]13CCCC[C@H]1[C@@H](C2)N(CC1CCC1)CC3 [Compound 6]
- greater binding affinity at the μ receptor (μ opioid receptor; relative to des-hydroxy analog 5): 7.5 fold
- Selectivity μ/δ/κ [1]: 1/39/1
